Assay results taken from patent US5202315A, “Cephalosporin compounds” (Lucky, Ltd., priority 1989, dated 1993).
In brackets after ≈: the same amount, converted by molar mass. Read-outs that look alike come from different tables or passages of the source.

Tests used:
[1] = In-vivo absorbency (plasma concentrations & pharmacokinetic parameters); set-up: species or system SD rat (male); settings: rat, in vivo, iv, 20 mg/kg
Escherichia coli = experiment: Antibacterial activity against clinically isolated strains, MIC; format: cell-based
[2] = In-vivo absorbency (plasma concentrations & pharmacokinetic parameters); set-up: species or system SD rat (male); settings: rat, in vivo, iv, 20 mg/kg; remark: listed apart in the source
From the text: The blood samples from the femoral vein of the rats were taken every hour after administration, and analyzed by bio-assay(agar well method).
Tested animal: SD male Rat (220~340 g)

Pseudomonas aeruginosa = experiment: Antibacterial activity against clinically isolated strains, MIC; format: cell-based
Klebsiella pneumoniae = experiment: as above; format: cell-based
[3] = tested on: Staphylococcus aureus methicillin resistant; experiment: as above; format: cell-based
[4] = tested on: Staphylococcus aureus methicillin susceptible; experiment: as above; format: cell-based
[5] = tested on: Shigella sonnei ATCC 11060; experiment: Antibacterial activity, MIC; format: cell-based; settings: ATCC11060, ATCC 11060, agar two-fold dilution, 37° C., 20 hours, read-out: MIC
Outline: (§1)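 Agar two-fold dilution method: compound serially diluted two-fold in Mueller-Hinton agar, spotted with 2 μl of a 10^7 CFU/ml inoculum of each standard strain, then incubated at 37 °C for 20 h.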

[6] = tested on: Klebsiella pneumoniae ATCC 10031; experiment: Antibacterial activity, MIC; format: cell-based
Outline: as §1

[7] = tested on: Staphylococcus aureus ATCC 10537; experiment: Antibacterial activity, MIC; format: cell-based
Outline: as §1

[8] = tested on: Providencia rettgeri ATCC 9250; experiment: Antibacterial activity, MIC; format: cell-based; settings: ATCC9250, agar two-fold dilution, 37° C., 20 hours
Outline: as §1

[9] = tested on: Bacillus megaterium ATCC 9885; experiment: Antibacterial activity, MIC; format: cell-based; settings: Priestia megaterium
Outline: as §1

[10] = tested on: Proteus mirabilis ATCC 25933; experiment: Antibacterial activity, MIC; format: cell-based
Outline: as §1

[11] = tested on: Proteus vulgaris ATCC 6059; experiment: Antibacterial activity, MIC; format: cell-based
Outline: as §1

[12] = tested on: Bacillus cereus ATCC 11778; experiment: Antibacterial activity, MIC; format: cell-based
Outline: as §1

[13] = tested on: Enterobacter aerogenes ATCC 29751; experiment: Antibacterial activity, MIC; format: cell-based; settings: Klebsiella aerogenes
Outline: as §1

[14] = tested on: Staphylococcus epidermidis ATCC 12228; experiment: Antibacterial activity, MIC; format: cell-based
Outline: as §1

[15] = tested on: Enterobacter cloacae ATCC 27508; experiment: Antibacterial activity, MIC; format: cell-based
Outline: as §1

[16] = tested on: Escherichia coli ATCC 10536; experiment: Antibacterial activity, MIC; format: cell-based; settings: ATCC10536, agar two-fold dilution, 37° C., 20 hours
Outline: as §1

[17] = tested on: Serratia marcescens ATCC 27117; experiment: Antibacterial activity, MIC; format: cell-based
Outline: as §1

[18] = tested on: Pseudomonas aeruginosa ATCC 25619; experiment: Antibacterial activity, MIC; format: cell-based
Outline: as §1

[19] = tested on: Pseudomonas aeruginosa ATCC 10145; experiment: Antibacterial activity, MIC; format: cell-based
Outline: as §1

[20] = tested on: Staphylococcus aureus ATCC 6538p; experiment: Antibacterial activity, MIC; format: cell-based; settings: ATCC6538P
Outline: as §1

[21] = tested on: Acinetobacter calcoaceticus ATCC 15473; experiment: Antibacterial activity, MIC; format: cell-based
Outline: as §1

[22] = tested on: Morganella morganii ATCC 8076h; experiment: Antibacterial activity, MIC; format: cell-based; settings: ATCC8076H, agar two-fold dilution, 37° C., 20 hours
Outline: as §1

[23] = tested on: Pseudomonas aeruginosa ATCC 27853; experiment: Antibacterial activity, MIC; format: cell-based
Outline: as §1

[24] = tested on: Citrobacter freundii ATCC 8090; experiment: Antibacterial activity, MIC; format: cell-based
Outline: as §1

[25] = tested on: Shigella flexneri ATCC 11836; experiment: Antibacterial activity, MIC; format: cell-based; settings: ATCC11836, agar two-fold dilution, 37° C., 20 hours
Outline: as §1

[26] = tested on: Micrococcus luteus ATCC 9341; experiment: Antibacterial activity, MIC; format: cell-based
Outline: as §1

[27] = tested on: Streptococcus faecalis ATCC 29212; experiment: Antibacterial activity, MIC; format: cell-based; settings: Enterococcus faecalis
Outline: as §1

[28] = tested on: Salmonella typhimurium ATCC 14028; experiment: Antibacterial activity, MIC; format: cell-based; settings: Salmonella enterica
Outline: as §1

[29] = tested on: Escherichia coli ATCC 25922; experiment: Antibacterial activity, MIC; format: cell-based; settings: ATCC25922, agar two-fold dilution, 37° C., 20 hours
Outline: as §1

[30] = 38 clinical isolates, broth microdilution test

SMILES: CC(C)(O/N=C(\C(=O)N[C@@H]1C(=O)N2C(C(=O)[O-])=C(C[n+]3ccccc3)CS[C@H]12)c1csc(N)n1)C(=O)O [Ceftazidime, reference compound]
- AUC [1]: 31100 ng·h/mL
- concentration at 1 min [1]: 135000 ng/mL
- concentration at 2.5 min [1]: 94000 ng/mL
- concentration at 5 min [1]: 71000 ng/mL
- concentration at 10 min [1]: 53000 ng/mL
- concentration at 20 min [1]: 26000 ng/mL
- concentration at 40 min [1]: 10000 ng/mL
- MIC50 (Escherichia coli): 0.13 µg/mL (≈ 0.238 µM)
- MIC90 (Escherichia coli; [30]): 0.13 µg/mL (≈ 0.238 µM)
- concentration at 1 h [2]: 4700 ng/mL
- concentration at 2 h [2]: 1600 ng/mL
- MIC50 (Pseudomonas aeruginosa): 4 µg/mL (≈ 7.32 µM)
- MIC90 (Pseudomonas aeruginosa): 16 µg/mL (≈ 29.3 µM)
- MIC50 (Klebsiella pneumoniae): 0.063 µg/mL (≈ 0.115 µM)
- MIC90 (Klebsiella pneumoniae): 0.5 µg/mL (≈ 0.915 µM)
- MIC50 [3]: 128 µg/mL (≈ 234 µM)
- MIC90 [3]: > 128 µg/mL
- MIC50 [4]: 8 µg/mL (≈ 14.6 µM)
- MIC90 [4]: 8 µg/mL (≈ 14.6 µM)
- MIC [5]: 0.13 µg/mL (≈ 0.238 µM)
- MIC ([6]; ATCC10031, 20 h): 0.13 µg/mL (≈ 0.238 µM)
- MIC ([7]; ATCC10537, 20 h): 8 µg/mL (≈ 14.6 µM)
- MIC [8]: ≤ 0.008 µg/mL
- MIC ([9]; ATCC9885, 20 h): 0.25 µg/mL (≈ 0.457 µM)
- MIC ([10]; ATCC25933, 20 h): 0.063 µg/mL (≈ 0.115 µM)
- MIC ([11]; ATCC6059, 20 h): 0.063 µg/mL (≈ 0.115 µM)
- MIC ([12]; ATCC11778, 20 h): 128 µg/mL (≈ 234 µM)
- MIC ([13]; ATCC29751, 20 h): 8 µg/mL (≈ 14.6 µM)
- MIC ([14]; ATCC12228, 20 h): 8 µg/mL (≈ 14.6 µM)
- MIC ([15]; ATCC27508, 20 h): 0.063 µg/mL (≈ 0.115 µM)
- MIC [16]: 0.13 µg/mL (≈ 0.238 µM)
- MIC ([17]; ATCC27117, 20 h): 0.13 µg/mL (≈ 0.238 µM)
- MIC ([18]; ATCC25619, 20 h): 1 µg/mL (≈ 1.83 µM)
- MIC ([19]; ATCC10145, 20 h): 2 µg/mL (≈ 3.66 µM)
- MIC ([20]; 20 h): 16 µg/mL (≈ 29.3 µM)
- MIC ([21]; ATCC15473, 20 h): 4 µg/mL (≈ 7.32 µM)
- MIC [22]: 0.016 µg/mL (≈ 0.0293 µM)
- MIC ([23]; ATCC27853, 20 h): 1 µg/mL (≈ 1.83 µM)
- MIC ([24]; ATCC8090, 20 h): 0.25 µg/mL (≈ 0.457 µM)
- MIC [25]: 0.063 µg/mL (≈ 0.115 µM)
- MIC ([26]; ATCC9341, 20 h): 1 µg/mL (≈ 1.83 µM)
- MIC ([27]; ATCC29212, 20 h): > 128 µg/mL
- MIC ([28]; 20 h): 0.25 µg/mL (≈ 0.457 µM)
- MIC [29]: 0.13 µg/mL (≈ 0.238 µM)

SMILES: CCO/N=C(\C(=O)NC1C(=O)N2C(C(=O)[O-])=C(CSc3nc(N)cc(N)[n+]3C)CSC12)c1nsc(N)n1 (stereo not shown) [Compound I-20]
- MIC50 (Escherichia coli; [30]): 0.063 µg/mL (≈ 0.111 µM)
- MIC90 (Escherichia coli; [30]): 0.25 µg/mL (≈ 0.441 µM)
- MIC90 (Pseudomonas aeruginosa): 16 µg/mL (≈ 28.2 µM)
- MIC50 (Pseudomonas aeruginosa; 54 clinical isolates, broth microdilution test): 4 µg/mL (≈ 7.06 µM)
- MIC50 (Klebsiella pneumoniae; 10 clinical isolates, broth microdilution test): 0.13 µg/mL (≈ 0.229 µM)
- MIC90 (Klebsiella pneumoniae; 10 clinical isolates, broth microdilution test, read-out: MIC 90%): 0.13 µg/mL (≈ 0.229 µM)
- MIC50 ([3]; methicillin resistant, 7 clinical isolates, broth microdilution test): 16 µg/mL (≈ 28.2 µM)
- MIC90 ([3]; methicillin resistant, 7 clinical isolates, broth microdilution test, read-out: MIC 90%): 32 µg/mL (≈ 56.5 µM)
- MIC90 [4]: 0.5 µg/mL (≈ 0.882 µM)
- MIC50 ([4]; methicillin susceptible, 42 clinical isolates, broth microdilution test): 0.5 µg/mL (≈ 0.882 µM)
- MIC [5]: 0.13 µg/mL (≈ 0.229 µM)
- MIC ([6]; ATCC10031, ATCC 10031, agar two-fold dilution, 37° C., 20 hours, read-out: MIC): 0.016 µg/mL (≈ 0.0282 µM)
- MIC ([7]; ATCC10537, ATCC 10537, agar two-fold dilution, 37° C., 20 hours, read-out: MIC): 0.25 µg/mL (≈ 0.441 µM)
- MIC [8]: ≤ 0.008 µg/mL
- MIC ([9]; ATCC9885, ATCC 9885, agar two-fold dilution, 37° C., 20 hours, read-out: MIC): 0.13 µg/mL (≈ 0.229 µM)
- MIC ([10]; ATCC25933, ATCC 25933, agar two-fold dilution, 37° C., 20 hours, read-out: MIC): 0.5 µg/mL (≈ 0.882 µM)
- MIC ([11]; ATCC6059, ATCC 6059, agar two-fold dilution, 37° C., 20 hours, read-out: MIC): 1 µg/mL (≈ 1.76 µM)
- MIC ([12]; ATCC11778, ATCC 11778, agar two-fold dilution, 37° C., 20 hours, read-out: MIC): 32 µg/mL (≈ 56.5 µM)
- MIC ([13]; ATCC29751, ATCC 29751, agar two-fold dilution, 37° C., 20 hours, read-out: MIC): 0.25 µg/mL (≈ 0.441 µM)
- MIC ([14]; ATCC12228, ATCC 12228, agar two-fold dilution, 37° C., 20 hours, read-out: MIC): 0.25 µg/mL (≈ 0.441 µM)
- MIC ([15]; ATCC27508, ATCC 27508, agar two-fold dilution, 37° C., 20 hours, read-out: MIC): 0.016 µg/mL (≈ 0.0282 µM)
- MIC [16]: 0.13 µg/mL (≈ 0.229 µM)
- MIC ([17]; ATCC27117, ATCC 27117, agar two-fold dilution, 37° C., 20 hours, read-out: MIC): 0.25 µg/mL (≈ 0.441 µM)
- MIC ([18]; ATCC25619, ATCC 25619, agar two-fold dilution, 37° C., 20 hours, read-out: MIC): 1 µg/mL (≈ 1.76 µM)
- MIC ([19]; ATCC10145, ATCC 10145, agar two-fold dilution, 37° C., 20 hours, read-out: MIC): 4 µg/mL (≈ 7.06 µM)
- MIC ([20]; ATCC 6538p, agar two-fold dilution, 37° C., 20 hours, read-out: MIC): 0.5 µg/mL (≈ 0.882 µM)
- MIC ([21]; ATCC15473, ATCC 15473, agar two-fold dilution, 37° C., 20 hours, read-out: MIC): 2 µg/mL (≈ 3.53 µM)
- MIC [22]: 0.016 µg/mL (≈ 0.0282 µM)
- MIC ([23]; ATCC27853, ATCC 27853, agar two-fold dilution, 37° C., 20 hours, read-out: MIC): 2 µg/mL (≈ 3.53 µM)
- MIC ([24]; ATCC8090, ATCC 8090, agar two-fold dilution, 37° C., 20 hours, read-out: MIC): 0.13 µg/mL (≈ 0.229 µM)
- MIC [25]: 0.031 µg/mL (≈ 0.0547 µM)
- MIC ([26]; ATCC9341, ATCC 9341, agar two-fold dilution, 37° C., 20 hours, read-out: MIC): 0.031 µg/mL (≈ 0.0547 µM)
- MIC ([27]; ATCC29212, ATCC 29212, agar two-fold dilution, 37° C., 20 hours, read-out: MIC): 32 µg/mL (≈ 56.5 µM)
- MIC ([28]; ATCC 14028, agar two-fold dilution, 37° C., 20 hours, read-out: MIC): 0.5 µg/mL (≈ 0.882 µM)
- MIC [29]: 0.13 µg/mL (≈ 0.229 µM)
